Laboratory results from patent US8822541B2, “Use of targeted nitroxide agents in mitigating or treating radiation injury” (University of Pittsburgh—Of the Commonwealth System of …, priority 2008, dated 2014).

What was measured:
[1] = tested on: rat ileal mucosa; assay: Intestinal mucosal permeability assay (FD4) after hemorrhagic shock; type: in vivo; settings: intraluminal
Method: Intestinal mucosal permeability assay. Animals were allowed access to water but not food for 24 h prior to the experiment in order to decrease the volume of intestinal contents. The rats were instrumented as described above. A midline laparotomy was performed and the small intestine was exteriorized from the duodenojejunal junction to the ileocecal valve. A small incision was made on the antimesenteric aspect of the proximal small intestine and saline solution (1.5 ml) was injected. The bowel was ligated proximally and distally to the incision with 4-0 silk (Look, Reading, Pa.).
The small intestine was compressed gently in aboral direction along its length to displace intestinal contents into the colon. Starting 5 cm from the ileocecal valve, the ileum was partitioned into six contiguous water-tight segments. […]
The remaining four other segments were injected with solutions containing either 4-hydroxy-2,2,6,6-tetramethylpiperidine-N-oxyl (TEMPOL) or one of the Gramicidin S-based compounds. Four different final concentrations of TEMPOL in normal saline were evaluated: 0.1, 1, 5 and 20 mM. […]
Fluorescence of FD4 in the solution inside the beaker and within each gut sac was measured using a fluorescence spectrophotometer (LS-50, Perkin-Elmer, Palo Alto, Calif.) at an excitation wavelength of 492 nm and an emission wavelength of 515 nm. […]

[2] = tested on: rat ileal mucosa; assay: Peroxidation of phospholipids in intestinal mucosa after hemorrhagic shock; type: in vivo; settings: 10 μM intraluminal, 2 h HS
Text: Assay for peroxidation of phospholipids. Gut mucosal samples were homogenized. Lipids were extracted from homogenates using the Folch procedure, see M. Lees and G. H. Sloan-Stanley, A simple method for isolation and purification of total lipids from animal tissue, J. BIOL. CHEM. 226:497-509 (1957), and resolved by 2D HPTLC (High Performance Thin Layer Chromatography) as previously described, see Kagan, V. E. et al., A role for oxidative stress in apoptosis: Oxidation and externalization of phosphatidylserine is required for macrophage clearance of cell undergoing Fas-mediated apoptosis, J Immunol, 2002, 169:487-489. Spots of phospholipids'were scraped from HPTLC plates and phospholipids were extracted from silica. Lipid phosphorus was determined by a micro-method, see Bottcher, C. J. F. et al., A rapid and sensitive sub-micro phosphorus determination, Anal Chim Acta. 1961, 24: 203-204.
Oxidized phospholipids were hydrolyzed by pancreatic phospholipase A2 (2 U/μl) in 25 mM phosphate buffer containing 1 mM CaCl2, 0.5 mM EDTA and 0.5 mM sodium dodecyl sulfate (SDS) (pH 8.0, at room temperature for 30 min). Fatty acid hydroperoxides formed were determined by fluorescence HPLC of resorufin stoichiometrically formed during their microperoxidase 11-catalized reduction in presence of Amplex Red (for 40 min at 4° C.) (8). Fluorescence HPLC (Eclipse XDB-C18 column, 5 μm, 150×4.6 mm, mobile phase was composed of 25 mM disodium phosphate buffer (pH 7.0)/methanol (60:40 v/v); excitation wavelength 560 nm, emission wavelength 590 nm) was performed on a Shimadzu LC-100AT HPLC system equipped with fluorescence detector (RF-10Axl) and autosampler (SIL-10AD).
In the subsequent series of in vivo studies, the affect of intraluminal XJB-5-131 on hemorrhage-induced peroxidation of phospholipids in intestinal mucosa was examined. […] In a preferred embodiment, 0.3 mL of test solution filled the lumen of each ileal compartment.
After two hours of HS, samples of ileal mucosa from the gut sacs filled with the vehicle and XJB-5-131 were obtained and compared with ileal mucosa of normal MECs. […]

CC(C)C[C@@H](/C=C/[C@H](Cc1ccccc1)C(=O)N1CCC[C@H]1C(=O)N[C@H](C(=O)N[C@@H](CCCNC(=O)OCc1ccccc1)C(=O)NC1CC(C)(C)N([O])C(C)(C)C1)C(C)C)NC(=O)OC(C)(C)C [XJB-5-131]
hemorrhagic shock-induced mucosal hyperpermeability relative to control [1]: approximately 60 % of the control value | potency relative to TEMPOL [1]: ~1000 fold | peroxidation of phosphatidylcholine (PC) [2]: no effect | peroxidation of phosphatidylethanolamine (PE) [2]: small effect | peroxidation of phosphatidylserine (PS) [2]: no effect
